Data: PMC11943950, “Characterization of Flexusin A, a Novel Circular Bacteriocin Produced by Marine Bacterium Bacillus flexus R29-2” (Marine Drugs, 2025)
≈ marks a conversion by molar mass, not a printed value. Like-named read-outs stand apart in the source and are kept apart here.

Columns and labels:
[1] = tested on: S. aureus ATCC 6538; assay: microbe, parasite or virus in culture; type: cell-based, Staphylococcus aureus
Procedure: (§1) An array of indicator strains (S. aureus ATCC 6538, E. faecalis CICC 21605, E. faecium CICC 10004 and L. monocytogenes ATCC 19115) were used to determine the MIC of flexusin A by the methods, as reported. […] The purified powder of flexusin A was reconstituted at 256 μg/mL to serve as the stock solution. It was then used for the antibacterial activity assay over a range of 256, 128, 64, 32, 16, 8, 4, 2, 1, 0.5, 0.25, and 0.125 μg/mL. The protein concentration of the flexusin A stock solution was determined by the BCA method (BCA Protein Assay Kit, Sangon Biotech)”. Water was used as a negative control, whereas ampicillin (Solarbio, Beijing, China) was used as positive control. All assays were performed in triplicate. MIC was defined as the lowest concentration of flexusin A that inhibited indicator growth, as no visible microbial growth was observed.

[2] = tested on: E. faecalis CICC 21605; assay: microbe, parasite or virus in culture; type: cell-based, Enterococcus faecalis
Procedure: as §1

[3] = tested on: E. faecium CICC 10004; assay: MIC by broth microdilution; type: cell-based; settings: Enterococcus faecium, CICC10004, 96-well, approximately 1 × 10^6 CFU/mL, 37 °C, 24 h, no visible growth, triplicate
Procedure: as §1

[4] = tested on: L. monocytogenes ATCC 19115; assay: microbe, parasite or virus in culture; type: cell-based, Listeria monocytogenes
Procedure: as §1

[5] = biological target: chymotrypsin (Bos taurus, UniProt P00766); settings: chymotrypsin 1 mg/mL, 25 mM phosphate buffer pH 7.0, 37 °C for 4 h; residual antimicrobial activity, spot-on-lawn bioassay
Procedure: (§2) The HPLC purified bacteriocin samples were made readily soluble in neutral water, and the stock solution was then tested for sensitivity to heat, pH changes, and degradative enzymes. The qualitative spot-on-lawn bioassay was used to monitor changes in antimicrobial potency after treatments mentioned. For thermal stability testing, aliquots of the HPLC-purified peptide samples were exposed to 30 °C, 40 °C, 50 °C, 60 °C, 70 °C, 80 °C, 90 °C, and 100 °C for 30 min, respectively. For the pH stability test, aliquots of the stock solutions were adjusted to pH 2.0, 3.0, 4.0, 5.0, 6.0, 7.0, 8.0, and 9.0, followed by incubation at 25 °C for 2 h.
(§3) Sensitivity to various degradative enzymes was determined using trypsin, papain, pepsin, chymotrypsin, and protease K at a final concentration of 1 mg/mL, respectively. All enzymes were purchased from Sigma, and their solutions were prepared in 25 mM phosphate buffer, pH 7.0 (pepsin, pH = 2.0). Solutions of the antimicrobial peptide were prepared in the same sterile buffer. After mixing the enzymatic reaction solutions were incubated at 37 °C for 4 h before residual antimicrobial activity measurement.

[6] = biological target: pepsin (Sus scrofa, UniProt P00791); settings: pepsin 1 mg/mL, 25 mM phosphate buffer pH 2.0, 37 °C for 4 h; residual antimicrobial activity, spot-on-lawn bioassay
Procedure: as §2, §3

[7] = biological target: protease K (Parengyodontium album, UniProt P06873); settings: protease K 1 mg/mL, 25 mM phosphate buffer pH 7.0, 37 °C for 4 h; residual antimicrobial activity, spot-on-lawn bioassay
Procedure: as §2, §3

[8] = tested on: trypsin; settings: trypsin 1 mg/mL, 25 mM phosphate buffer pH 7.0, 37 °C for 4 h; residual antimicrobial activity, spot-on-lawn bioassay
Procedure: as §2, §3

[9] = HPLC purified sample, neutral water; qualitative
Procedure: as §2

[10] = pH range from 2.0 to 10.0 (method: pH 2.0-9.0), 25 °C for 2 h; read-out qualitative spot-on-lawn bioassay
[11] = treated for 30 min from 20 to 100 °C (method: 30-100 °C); read-out qualitative spot-on-lawn bioassay

protease K, sequence (P06873 106-384): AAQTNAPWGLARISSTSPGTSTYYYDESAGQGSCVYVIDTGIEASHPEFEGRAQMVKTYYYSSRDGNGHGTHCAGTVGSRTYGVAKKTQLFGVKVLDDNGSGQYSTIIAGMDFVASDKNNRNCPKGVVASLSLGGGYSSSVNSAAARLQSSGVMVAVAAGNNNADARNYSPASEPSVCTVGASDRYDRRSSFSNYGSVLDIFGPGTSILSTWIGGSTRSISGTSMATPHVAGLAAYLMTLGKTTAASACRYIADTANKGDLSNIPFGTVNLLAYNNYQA
pepsin, sequence (P00791 60-385): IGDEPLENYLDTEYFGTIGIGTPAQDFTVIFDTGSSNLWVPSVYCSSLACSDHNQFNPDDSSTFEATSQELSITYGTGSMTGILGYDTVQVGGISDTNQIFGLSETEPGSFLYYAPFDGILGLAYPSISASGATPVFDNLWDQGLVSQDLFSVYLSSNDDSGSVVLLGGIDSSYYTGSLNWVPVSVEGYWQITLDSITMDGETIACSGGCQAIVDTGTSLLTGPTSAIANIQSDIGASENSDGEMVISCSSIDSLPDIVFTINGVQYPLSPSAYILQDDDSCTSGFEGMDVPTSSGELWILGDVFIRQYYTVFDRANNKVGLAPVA

| Compound | MIC ([1]; Staphylococcus aureus, ATCC6538, S. aureus ATCC 6538, broth microdilution, 96-well, approximately 1 × 10^6 CFU/mL, 37 °C, 24 h, no visible growth, triplicate, read-out: MIC) | MIC ([2]; Enterococcus faecalis, CICC21605, E. faecalis CICC 21605, broth microdilution, 96-well, approximately 1 × 10^6 CFU/mL, 37 °C, 24 h, no visible growth, triplicate, read-out: MIC) | MIC [3] | MIC ([4]; Listeria monocytogenes, ATCC19115, L. monocytogenes ATCC 19115, broth microdilution, 96-well, approximately 1 × 10^6 CFU/mL, 37 °C, 24 h, no visible growth, triplicate, read-out: MIC) | MIC ([1]; ATCC 6538, 24 h) | MIC ([2]; CICC 21605, 24 h) | MIC ([4]; ATCC 19115, 24 h) | Resistance to chymotrypsin (remaining activity) [5] | Resistance to pepsin (remaining activity) [6] | Resistance to protease K (remaining activity) [7] | Resistance to trypsin (remaining activity) [8] | Solubility in water [9] | pH stability (remaining activity) [10] | Thermal stability (remaining activity) [11] |
| --- | --- | --- | --- | --- | --- | --- | --- | --- | --- | --- | --- | --- | --- | --- |
| CC1(C)S[C@@H]2[C@H](NC(=O)[C@H](N)c3ccccc3)C(=O)N2[C@H]1C(=O)O [Amp, ampicillin, reference compound] | 0.4 µg/mL (≈ 1.14 µM) | > 51.2 µg/mL | 1.6 µg/mL (≈ 4.58 µM) | 0.0625 µg/mL (≈ 0.179 µM) | – | – | – | – | – | – | – | – | – | – |
| cyclo(AGALGISEYWANVIVTAIEAGSTVLALISMFASFGLTSALILTAKSLLKKGAKKTAVAYI) [flexusin A] | – | – | – | – | 1 µg/mL | 16 µg/mL | 2 µg/mL | sensitive | tolerant | sensitive | tolerant | water soluble | stable | decent thermal stability |
